# Experiments:
# Assay type in all cases: in vivo
# [1] = tested on: Cyperus serotinus, Rottb.; assay: Preemergence weed control under flooded paddy conditions, CYPSE (Flatsedge); conditions: for herbicidal effect rating, CYPSE: rated three to four weeks after treatment; for CYPSE: herbicidal effect rating 0-9, three to four weeks after treatment; as to herbicidal effect rating, CYPSE: meaning of each grade not given here
# Cyperus iria = assay: Preemergence weed control under flooded paddy conditions, CYPIR (Rice Flatsedge); conditions: flooded paddy; for herbicidal effect rating, CYPIR: rated three to four weeks after treatment; for CYPIR: herbicidal effect rating 0-9, three to four weeks after treatment; as to herbicidal effect rating, CYPIR: meaning of each grade not given here
# [2] = tested on: Monochoria vaginalis, Presl.; assay: Preemergence weed control under flooded paddy conditions, MOOVA (Monochoria); conditions: flooded paddy; for herbicidal effect rating, MOOVA: rated three to four weeks after treatment; for MOOVA: herbicidal effect rating 0-9, three to four weeks after treatment; as to herbicidal effect rating, MOOVA: meaning of each grade not given here
# [3] = tested on: Echinochloa oryzoides (Ard.) Fritsch.; assay: Preemergence weed control under flooded paddy conditions, ECHORC (Watergrass (Calif.)); conditions: flooded paddy; for herbicidal effect rating, ECHORC: rated three to four weeks after treatment; for ECHORC: herbicidal effect rating 0-9, three to four weeks after treatment; as to herbicidal effect rating, ECHORC: meaning of each grade not given here
# Sagittaria pygmaea, L. = assay: Preemergence weed control under flooded paddy conditions, SAGPY (Arrowhead (Pygmaea)); conditions: flooded paddy; for herbicidal effect rating, SAGPY: rated three to four weeks after treatment; for SAGPY: herbicidal effect rating 0-9, three to four weeks after treatment; as to herbicidal effect rating, SAGPY: meaning of each grade not given here
# [4] = 0.0313 kg/ha, preemergence weeds
# [5] = 0.0625 kg/ha, preemergence weeds
# [6] = 0.1250 kg/ha, preemergence weeds
# [7] = 0.2500 kg/ha, preemergence weeds
# [8] = 0.0320 kg/ha, preemergence weeds
# [9] = 0.0620 kg/ha, preemergence weeds
# [10] = Rate 0.0320 kg/ha, preemergence
# [11] = Rate 0.0620 kg/ha, preemergence
# [12] = Rate 0.1250 kg/ha, preemergence
# [13] = Rate 0.2500 kg/ha, preemergence
# [14] = Rate 0.5000 kg/ha, preemergence
smiles,measurement,setting,value
CC(C)=NOC(=O)COc1ccc(C)cc1-c1nsc2ccc(-n3c(=O)cc(C(F)(F)F)n(C)c3=O)cc12 [Example 194],"herbicidal effect rating, CYPSE",[1]; [4],0.0
same,"herbicidal effect rating, CYPSE",[1]; [5],0.0
same,"herbicidal effect rating, CYPSE",[1]; [6],0.0
same,"herbicidal effect rating, CYPSE",[1]; [7],0.0
same,"herbicidal effect rating, CYPIR",Cyperus iria; [4],0.0
same,"herbicidal effect rating, CYPIR",Cyperus iria; [5],0.0
same,"herbicidal effect rating, CYPIR",Cyperus iria; [6],0.0
same,"herbicidal effect rating, CYPIR",Cyperus iria; [7],0.0
same,"herbicidal effect rating, MOOVA",[2]; [4],9.0
same,"herbicidal effect rating, MOOVA",[2]; [5],9.0
same,"herbicidal effect rating, MOOVA",[2]; [6],9.0
same,"herbicidal effect rating, MOOVA",[2]; [7],9.0
same,"herbicidal effect rating, ECHORC",[3]; [4],0.0
same,"herbicidal effect rating, ECHORC",[3]; [5],2.0
same,"herbicidal effect rating, ECHORC",[3]; [6],6.0
same,"herbicidal effect rating, ECHORC",[3]; [7],9.0
same,"herbicidal effect rating, SAGPY","Sagittaria pygmaea, L.; [4]",0.0
same,"herbicidal effect rating, SAGPY","Sagittaria pygmaea, L.; [5]",0.0
same,"herbicidal effect rating, SAGPY","Sagittaria pygmaea, L.; [6]",0.0
same,"herbicidal effect rating, SAGPY","Sagittaria pygmaea, L.; [7]",0.0
"COc1ccc(C)cc1-c1nsc2cc(Cl)c(-n3c(=O)cc(C(F)(F)F)n(C)c3=O)cc12 [Example 442, 2,4(1H,3H)-Pyrimidinedione, 3-[6-chloro-3-(6-methoxy-m-tolyl)-1,2-benzisothiazol-5-yl]-1-methyl-6-(trifluoromethyl)-]",CYPSE,[1]; [8],0.0
same,CYPSE,[1]; [9],0.0
same,CYPSE,[1]; [6],0.0
same,CYPSE,[1]; [7],4.5
same,CYPIR,Cyperus iria; [8],4.3
same,CYPIR,Cyperus iria; [9],6.3
same,CYPIR,Cyperus iria; [6],8.7
same,CYPIR,Cyperus iria; [7],9.0
same,MOOVA,[2]; [8],6.0
same,MOOVA,[2]; [9],8.3
same,MOOVA,[2]; [6],9.0
same,MOOVA,[2]; [7],9.0
same,ECHORC,[3]; [8],8.3
same,ECHORC,[3]; [9],9.0
same,ECHORC,[3]; [6],9.0
same,ECHORC,[3]; [7],9.0
same,SAGPY,"Sagittaria pygmaea, L.; [8]",1.3
same,SAGPY,"Sagittaria pygmaea, L.; [9]",1.7
same,SAGPY,"Sagittaria pygmaea, L.; [6]",2.0
same,SAGPY,"Sagittaria pygmaea, L.; [7]",4.0
"Cn1c(C(F)(F)F)cc(=O)n(-c2ccc3snc(COC(=O)c4ccccc4)c3c2)c1=O [Example 364, 2,4(1H,3H)-Pyrimidinedione, 3-[3-(hydroxymethyl)-1,2-benzisothiazol-5-yl]-1-methyl-6-(trifluoromethyl)-, benzoate (ester)]","herbicidal effect rating, CYPSE",[1]; [10],3.0
same,"herbicidal effect rating, CYPSE",[1]; [11],3.0
same,"herbicidal effect rating, CYPSE",[1]; [12],5.0
same,"herbicidal effect rating, CYPSE",[1]; [13],6.0
same,"herbicidal effect rating, CYPSE",[1]; [14],7.0
same,"herbicidal effect rating, CYPIR",Cyperus iria; [10],7.0
same,"herbicidal effect rating, CYPIR",Cyperus iria; [11],7.0
same,"herbicidal effect rating, CYPIR",Cyperus iria; [12],9.0
same,"herbicidal effect rating, CYPIR",Cyperus iria; [13],9.0
same,"herbicidal effect rating, CYPIR",Cyperus iria; [14],9.0
same,"herbicidal effect rating, MOOVA",[2]; [10],9.0
same,"herbicidal effect rating, MOOVA",[2]; [11],9.0
same,"herbicidal effect rating, MOOVA",[2]; [12],9.0
same,"herbicidal effect rating, MOOVA",[2]; [13],9.0
same,"herbicidal effect rating, MOOVA",[2]; [14],9.0
same,"herbicidal effect rating, ECHORC",[3]; [10],3.0
same,"herbicidal effect rating, ECHORC",[3]; [11],5.0
same,"herbicidal effect rating, ECHORC",[3]; [12],6.0
same,"herbicidal effect rating, ECHORC",[3]; [13],6.0
same,"herbicidal effect rating, ECHORC",[3]; [14],7.0
same,"herbicidal effect rating, SAGPY","Sagittaria pygmaea, L.; [10]",4.0
same,"herbicidal effect rating, SAGPY","Sagittaria pygmaea, L.; [11]",4.0
same,"herbicidal effect rating, SAGPY","Sagittaria pygmaea, L.; [12]",5.0
same,"herbicidal effect rating, SAGPY","Sagittaria pygmaea, L.; [13]",9.0
same,"herbicidal effect rating, SAGPY","Sagittaria pygmaea, L.; [14]",9.0
"Cn1c(C(F)(F)F)cc(=O)n(-c2ccc3snc(COC(=O)CCl)c3c2)c1=O [Example 368, 2,4(1H,3H)-Pyrimidinedione, 3-[3-(hydroxymethyl)-1,2-benzisothiazol-5-yl]-1-methyl-6-(trifluoromethyl)-, chloroacetate (ester)]","herbicidal effect rating, CYPSE",[1]; [10],0.0
same,"herbicidal effect rating, CYPSE",[1]; [11],4.0
same,"herbicidal effect rating, CYPSE",[1]; [12],7.0
same,"herbicidal effect rating, CYPSE",[1]; [13],8.0
same,"herbicidal effect rating, CYPIR",Cyperus iria; [10],7.0
same,"herbicidal effect rating, CYPIR",Cyperus iria; [11],9.0
same,"herbicidal effect rating, CYPIR",Cyperus iria; [12],9.0
same,"herbicidal effect rating, CYPIR",Cyperus iria; [13],9.0
same,"herbicidal effect rating, MOOVA",[2]; [10],9.0
same,"herbicidal effect rating, MOOVA",[2]; [11],9.0
same,"herbicidal effect rating, MOOVA",[2]; [12],9.0
same,"herbicidal effect rating, MOOVA",[2]; [13],9.0
same,"herbicidal effect rating, ECHORC",[3]; [10],3.0
same,"herbicidal effect rating, ECHORC",[3]; [11],7.0
same,"herbicidal effect rating, ECHORC",[3]; [12],7.0
same,"herbicidal effect rating, ECHORC",[3]; [13],8.0
same,"herbicidal effect rating, SAGPY","Sagittaria pygmaea, L.; [10]",5.0
same,"herbicidal effect rating, SAGPY","Sagittaria pygmaea, L.; [11]",6.0
same,"herbicidal effect rating, SAGPY","Sagittaria pygmaea, L.; [12]",9.0
same,"herbicidal effect rating, SAGPY","Sagittaria pygmaea, L.; [13]",9.0

# Reference: EP0908457B1, “3-(1,2-benzisothiazol- and isoxazol-5-Y1)-2,4(1H,3H)-pyrimidinedione or thione and 3-(1,2-benzisothiazol- and isoxazol-5-y1)-4(3H)-pyrimidinone or thione herbicidal agents” (BASF AKTIENGESELLSCHAFT, priority 1997, dated 1999)
